{
  "source": "patent US11072614B2",
  "about": "“Polymorphs of sepiapterin and salts thereof” (PTC Therapeutics MP, Inc., priority 2016, dated 2021)",
  "format_in_all_cases": "physicochemical",
  "key": {"[1]": {"test": "Storage stability study of solid forms, HPLC purity (Example 11)", "details": "100% RH", "protocol": "(§1) Form A and F samples were placed in chambers with silica gel to remove water (the relative humidity was measured to be ˜10% RH) at different temperatures. Form D samples were placed in chambers with water (relative humidity was estimated to be ˜100% RH) at different temperatures.\n(§2) The HPLC purities and XRD patterns were obtained for each of Form A/F/D samples stored at various temperatures."}, "[2]": {"test": "Storage stability study of solid forms, form change by XRD (Example 11)", "details": "100% RH", "protocol": "For X-ray powder diffraction analysis, a PANalytical Empyrean X-ray powder diffractometer was used. The parameters are as follows:\nas §1, §2"}, "[3]": {"test": "Storage stability of polymorphs, HPLC sepiapterin and impurity profile (Example 12)", "parameters": "Impurity RRT 1.06 / Impurity RRT 1.08 / Impurity RRT 1.17 / Impurity RRT 1.21 / Impurity RRT 1.25 / Impurity RRT 0.62 / Impurity RRT 0.89 / Impurity RRT 0.95 / Impurity RRT 0.60: unit not given here", "protocol": "Samples of sepiapterin free base polymorph Forms D, F, and A were stored at room temperature (RT), 35° C., and 50° C. The samples were analyzed by HPLC at 1 week and 4 week intervals. The HPLC parameters were as follows: [table]"}, "[4]": {"test": "Physical form stability to grinding and sieving (XRD before and after)", "protocol": "A sample of sepiapterin free base was obtained commercially. […] The sepiapterin sample contained particles with an average particle size over 100 μm. The XRD pattern was determined before and after grinding to reduce the particle size such that it passes through a 140 mesh screen. This polymorph of sepiapterin free base is referred to as Form A herein."}},
  "data": [
    {"compound": "C[C@H](O)C(=O)C1=Nc2c(nc(N)[nH]c2=O)NC1", "note": "[Form D, sepiapterin]", "values": [
      {"measurement": "% of Initial", "setting": "[1]; 35° C., storage 1 week", "result": 99.7, "unit": "%"},
      {"measurement": "Purity (area %)", "setting": "[1]; 35° C., storage 1 week", "result": 98.8, "unit": "area %"},
      {"measurement": "% of Initial", "setting": "[1]; 35° C., storage 4 weeks", "result": 99.6, "unit": "%"},
      {"measurement": "Purity (area %)", "setting": "[1]; 35° C., storage 4 weeks", "result": 98.7, "unit": "area %"},
      {"measurement": "% of Initial", "setting": "[1]; 50° C., storage 1 week", "result": 99.3, "unit": "%"},
      {"measurement": "Purity (area %)", "setting": "[1]; 50° C., storage 1 week", "result": 98.5, "unit": "area %"},
      {"measurement": "% of Initial", "setting": "[1]; 50° C., storage 4 weeks", "result": 98.5, "unit": "%"},
      {"measurement": "Purity (area %)", "setting": "[1]; 50° C., storage 4 weeks", "result": 97.7, "unit": "area %"},
      {"measurement": "% of Initial", "setting": "[1]; RT, storage 1 week", "result": 99.9, "unit": "%"},
      {"measurement": "Purity (area %)", "setting": "[1]; RT, storage 1 week", "result": 99.0, "unit": "area %"},
      {"measurement": "% of Initial", "setting": "[1]; RT, storage 4 weeks", "result": 99.8, "unit": "%"},
      {"measurement": "Purity (area %)", "setting": "[1]; RT, storage 4 weeks", "result": 98.9, "unit": "area %"},
      {"measurement": "Form change", "setting": "[2]; 35° C., storage 1 week", "result": "No"},
      {"measurement": "Form change", "setting": "[2]; 35° C., storage 4 weeks", "result": "No"},
      {"measurement": "Form change", "setting": "[2]; 50° C., storage 1 week", "result": "No"},
      {"measurement": "Form change", "setting": "[2]; 50° C., storage 4 weeks", "result": "No"},
      {"measurement": "Form change", "setting": "[2]; RT, storage 1 week", "result": "No"},
      {"measurement": "Form change", "setting": "[2]; RT, storage 4 weeks", "result": "No"},
      {"measurement": "Impurity RRT 0.62", "setting": "[3]; 35° C./100% RH, 1 w", "result": "<0.05"},
      {"measurement": "Impurity RRT 0.95", "setting": "[3]; 35° C./100% RH, 1 w", "result": 0.86},
      {"measurement": "Impurity RRT 1.08", "setting": "[3]; 35° C./100% RH, 1 w", "result": 0.14},
      {"measurement": "Impurity RRT 1.17", "setting": "[3]; 35° C./100% RH, 1 w", "result": 0.17},
      {"measurement": "Sepiapterin RRT 1.00 (amount of sepiapterin)", "setting": "[3]; 35° C./100% RH, 1 w", "result": 98.83, "unit": "%"},
      {"measurement": "Impurity RRT 0.62", "setting": "[3]; 35° C./100% RH, 4 w", "result": 0.09},
      {"measurement": "Impurity RRT 0.95", "setting": "[3]; 35° C./100% RH, 4 w", "result": 1.04},
      {"measurement": "Impurity RRT 1.08", "setting": "[3]; 35° C./100% RH, 4 w", "result": "<0.05"},
      {"measurement": "Impurity RRT 1.17", "setting": "[3]; 35° C./100% RH, 4 w", "result": 0.17},
      {"measurement": "Sepiapterin RRT 1.00 (amount of sepiapterin)", "setting": "[3]; 35° C./100% RH, 4 w", "result": 98.70, "unit": "%"},
      {"measurement": "Impurity RRT 0.62", "setting": "[3]; 50° C./100% RH, 1 w", "result": 0.08},
      {"measurement": "Impurity RRT 0.95", "setting": "[3]; 50° C./100% RH, 1 w", "result": 1.05},
      {"measurement": "Impurity RRT 1.08", "setting": "[3]; 50° C./100% RH, 1 w", "result": 0.26},
      {"measurement": "Impurity RRT 1.17", "setting": "[3]; 50° C./100% RH, 1 w", "result": 0.16},
      {"measurement": "Sepiapterin RRT 1.00 (amount of sepiapterin)", "setting": "[3]; 50° C./100% RH, 1 w", "result": 98.45, "unit": "%"},
      {"measurement": "Impurity RRT 0.62", "setting": "[3]; 50° C./100% RH, 4 w", "result": 0.14},
      {"measurement": "Impurity RRT 0.95", "setting": "[3]; 50° C./100% RH, 4 w", "result": 2.03},
      {"measurement": "Impurity RRT 1.08", "setting": "[3]; 50° C./100% RH, 4 w", "result": "<0.05"},
      {"measurement": "Impurity RRT 1.17", "setting": "[3]; 50° C./100% RH, 4 w", "result": 0.18},
      {"measurement": "Sepiapterin RRT 1.00 (amount of sepiapterin)", "setting": "[3]; 50° C./100% RH, 4 w", "result": 97.65, "unit": "%"},
      {"measurement": "Impurity RRT 1.08", "setting": "[3]; Initial", "result": "<0.05"},
      {"measurement": "Impurity RRT 1.17", "setting": "[3]; Initial", "result": 0.17},
      {"measurement": "Impurity RRT 0.62", "setting": "[3]; Initial, listed as Polymorph D", "result": "<0.05"},
      {"measurement": "Impurity RRT 0.95", "setting": "[3]; Initial, listed as Polymorph D", "result": 0.69},
      {"measurement": "Sepiapterin RRT 1.00 (amount of sepiapterin)", "setting": "[3]; Initial, listed as Polymorph D", "result": 99.14, "unit": "%"},
      {"measurement": "Sepiapterin RRT 1.00 (amount of sepiapterin)", "setting": "[3]; Initial, listed as polymorph D", "result": 99.14, "unit": "%"},
      {"measurement": "Impurity RRT 0.62", "setting": "[3]; RT/100% RH, 1 w", "result": "<0.05"},
      {"measurement": "Impurity RRT 0.95", "setting": "[3]; RT/100% RH, 1 w", "result": 0.83},
      {"measurement": "Impurity RRT 1.08", "setting": "[3]; RT/100% RH, 1 w", "result": "<0.05"},
      {"measurement": "Impurity RRT 1.17", "setting": "[3]; RT/100% RH, 1 w", "result": 0.16},
      {"measurement": "Sepiapterin RRT 1.00 (amount of sepiapterin)", "setting": "[3]; RT/100% RH, 1 w", "result": 99.01, "unit": "%"},
      {"measurement": "Impurity RRT 0.62", "setting": "[3]; RT/100% RH, 4 w", "result": 0.09},
      {"measurement": "Impurity RRT 0.95", "setting": "[3]; RT/100% RH, 4 w", "result": 0.81},
      {"measurement": "Impurity RRT 1.08", "setting": "[3]; RT/100% RH, 4 w", "result": "<0.05"},
      {"measurement": "Impurity RRT 1.17", "setting": "[3]; RT/100% RH, 4 w", "result": 0.17},
      {"measurement": "Sepiapterin RRT 1.00 (amount of sepiapterin)", "setting": "[3]; RT/100% RH, 4 w", "result": 98.92, "unit": "%"},
      {"measurement": "stability compared with polymorph A (in words)", "setting": "[3]; storage at RT, 35° C., 50° C., 1 w and 4 w", "result": "significantly greater stability"},
      {"measurement": "physical form stability to grinding and sieving", "setting": "[4]", "result": "potential instability"}
    ]}
  ]
}
